Laboratory results: the supplement of paper PMC10307832

Legend:
Experiment in all cases: relative viability (nuclei count vs DMSO), 5 days (fraction); higher = more cells survive
MK-2206 + Olaparib = compound: NC1(c2ccc(-c3nc4ccn5c(=O)[nH]nc5c4cc3-c3ccccc3)cc2)CCC1 [MK-2206] + O=C(c1cc(Cc2n[nH]c(=O)c3ccccc23)ccc1F)N1CCN(C(=O)C2CC2)CC1 [Olaparib] (partner 8 µM)
Outline: (§1)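 A single step with final 0.05% Triton X-100, 1% formaldehyde and 1 ug/ml Hoechst fixed the cells and stained nuclei 5 days after treatment. Lung cancer cell lines in 1536-well plates had been treated by pin tool the day after seeding with one drug alone or a fixed anchor-drug dose plus five library-drug doses (not always all listed) in √10 steps, and nuclei were counted on 4× images. Relative viability is the ratio of nuclei in treated wells to nuclei in vehicle wells, taken as the median of duplicate plates.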

MK-2206 + Dasatinib = compound: NC1(c2ccc(-c3nc4ccn5c(=O)[nH]nc5c4cc3-c3ccccc3)cc2)CCC1 [MK-2206] + Cc1nc(Nc2ncc(C(=O)Nc3c(C)cccc3Cl)s2)cc(N2CCN(CCO)CC2)n1 [Dasatinib] (partner 0.075 µM)
Outline: as §1

MK-2206 + Palbociclib = compound: NC1(c2ccc(-c3nc4ccn5c(=O)[nH]nc5c4cc3-c3ccccc3)cc2)CCC1 [MK-2206] + CC(=O)c1c(C)c2cnc(Nc3ccc(N4CCNCC4)cn3)nc2n(C2CCCC2)c1=O [Palbociclib] (partner 0.5 µM)
Outline: as §1

MK-2206 + Pictilisib = compound: NC1(c2ccc(-c3nc4ccn5c(=O)[nH]nc5c4cc3-c3ccccc3)cc2)CCC1 [MK-2206] + CS(=O)(=O)N1CCN(Cc2cc3nc(-c4cccc5[nH]ncc45)nc(N4CCOCC4)c3s2)CC1 [Pictilisib] (partner 1 µM)
Outline: as §1

Pictilisib + Crizotinib = compound: CS(=O)(=O)N1CCN(Cc2cc3nc(-c4cccc5[nH]ncc45)nc(N4CCOCC4)c3s2)CC1 [Pictilisib] + C[C@@H](Oc1cc(-c2cnn(C3CCNCC3)c2)cnc1N)c1c(Cl)ccc(F)c1Cl [Crizotinib] (partner 1 µM)
Outline: as §1

Cell Line | relative viability (MK-2206 + Olaparib; first compound 0.01 µM) | relative viability (MK-2206 + Olaparib; first compound 0.03162 µM) | relative viability (MK-2206 + Olaparib; first compound 0.3162 µM) | relative viability (MK-2206 + Olaparib; first compound 1 µM) | relative viability (MK-2206 + Dasatinib; first compound 0.01 µM) | relative viability (MK-2206 + Dasatinib; first compound 0.03162 µM) | relative viability (MK-2206 + Dasatinib; first compound 0.3162 µM) | relative viability (MK-2206 + Dasatinib; first compound 1 µM) | relative viability (MK-2206 + Palbociclib; first compound 0.01 µM) | relative viability (MK-2206 + Palbociclib; first compound 0.03162 µM) | relative viability (MK-2206 + Palbociclib; first compound 0.3162 µM) | relative viability (MK-2206 + Palbociclib; first compound 1 µM) | relative viability (MK-2206 + Pictilisib; first compound 0.01 µM) | relative viability (MK-2206 + Pictilisib; first compound 0.03162 µM) | relative viability (MK-2206 + Pictilisib; first compound 0.3162 µM) | relative viability (MK-2206 + Pictilisib; first compound 1 µM) | relative viability (Pictilisib + Crizotinib; first compound 0.02 µM) | relative viability (Pictilisib + Crizotinib; first compound 0.06325 µM) | relative viability (Pictilisib + Crizotinib; first compound 0.6325 µM) | relative viability (Pictilisib + Crizotinib; first compound 2 µM)
NCI-H2009 | 0.703 | 0.662 | 0.701 | 0.704 | 0.296 | 0.309 | 0.287 | 0.325 | 0.139 | 0.25 | 0.179 | 0.177 | 0.717 | 1.02 | 0.831 | 0.865 | 1.02 | 1.02 | 1.04 | 0.705
NCI-H2023 | 0.463 | 0.506 | 0.436 | 0.44 | 0.6 | 0.542 | 0.443 | 0.362 | 0.39 | 0.347 | 0.297 | 0.208 | 0.231 | 0.197 | 0.206 | 0.191 | 0.513 | 0.533 | 0.331 | 0.201
NCI-H2085 | 0.778 | 0.858 | 0.786 | 0.732 | 0.257 | 0.234 | 0.253 | 0.242 | 0.433 | 0.558 | 0.397 | 0.522 | 0.516 | 0.415 | 0.416 | 0.438 | 0.887 | 0.994 | 0.747 | 0.394
NCI-H2087 | 0.641 | 0.552 | 0.592 | 0.51 | 0.71 | 0.962 | 0.918 | 0.775 | 0.225 | 0.226 | 0.184 | 0.217 | 0.817 | 0.933 | 0.833 | 0.671 | 0.912 | 0.828 | 1.03 | 0.985
NCI-H2126 | 0.932 | 1.01 | 0.87 | 0.925 | 0.686 | 0.625 | 0.5 | 0.476 | 0.372 | 0.358 | 0.357 | 0.335 | 0.522 | 0.47 | 0.491 | 0.468 | 0.998 | 0.988 | 0.972 | 0.688
